# Like-named read-outs stand apart in the source and are kept apart here.
# Experiments:
# A431 cells = experiment: Antiproliferation WST-1 assay, A431; format: cell-based, human
# Experimental: (§1) WST-1 is better than MTT for analyzing cell proliferation, because it can be reduced to soluble formazan by dehydrogenase in mitochondria and has little toxicity to cells. Cell proliferation was determined using WST-1 dye (Beyotime Inst Biotech, China) according to manufacture’s instructions. Brieﬂy, 5 × 10^3 cells per well were seeded in a 96-well plate, grown at 37 ℃ for 24 h, and then placed in serum-starved conditions for a further 6 h. Subsequently, cells were treated with compounds (Table 1) at increasing concentrations in the presence of 10% FBS for 24 or 48h. After 10 µL WST-1 dye was added to each well, cells were incubated at 37 ℃ for 2 h and the absorbance was ﬁnally determined at 450 nm using a microplate reader.
# MCF-7 cells = experiment: Antiproliferation WST-1 assay, MCF-7; format: cell-based, human
# Experimental: as §1
# human EGFR = target: T1, human EGFR (Homo sapiens, UniProt P00533); experiment: EGFR kinase assay ([γ-32P] ATP, poly-Glu-Tyr); format: biochemical; conditions: phosphorylation of poly-Glu-Tyr copolymer; mean, >1 determination; read-out: Enzyme activity IC50 against EGFR kinase
# T1 construct: the cytoplasmic domain (amino acids 669-1210) of human EGFR; FLAG (DYKDDDD) (N); made in house
# Experimental: (§2) The expressed HER2 kinase and EGFR kinase were purified by anti-FLAG M2 affinity gel (Sigma-Aldrich, USA). The HER2 and EGFR kinase assays were performed using radiolabeled [γ-^32P] ATP (GEHealthcare, USA) in 96-well plates. The kinase reactions were performed in 50 mmol/L Tris-HCl, pH7.5, 5 mmol/L MnCl2, 0.01% Tween-20 and 2 mmol/L DTT containing 0.9 μCi of [γ-^32P] ATP per reaction, 50 μmol/L ATP, 5 μg/mL poly-Glu-Tyr (4:1) and 0.25 μg/mL of purified Her2 or EGFR cytoplasmic domain in a total volume of 50 μL. […] Kinase reactions were initiated by adding ATP. After the kinase reaction incubated for 10 minutes at room temperature, reactions were terminated by the addition of 10% (final concentration) trichloroacetic acid. The [γ-^32P]-phosphorylated proteins were filtered in a harvest plate (Millipore, USA) with a cell harvester (PerkinElmer, USA) and washed free of [γ-^32P] ATP with 3% phosphoric acid. The plates were dried, followed by the addition of 25 μL of MicroScintO (PerkinElmer, USA). Radioactivity was counted by a Topcount scintillation counter (PerkinElmer, USA).
# A549 cells = experiment: Antiproliferation WST-1 assay, A549; format: cell-based, human
# Experimental: as §1
# human HER2 = target: T2, human HER2 (Homo sapiens, UniProt P04626); experiment: HER2 kinase assay ([γ-32P] ATP, poly-Glu-Tyr); format: biochemical; conditions: phosphorylation of poly-Glu-Tyr copolymer; mean, >1 determination; read-out: Enzyme activity IC50 against HER2 kinase
# T2 construct: The cytoplasmic domain (amino acids 676-1255) of human HER2; FLAG (DYKDDDD) (N); made in house
# Experimental: as §2
# [1] = Homo sapiens, MCF7, WST-1 assay, MCF-7 breast cancer, Her2/neu overexpression, read-out: Cellular IC50, MCF-7
# [2] = WST-1 assay, A549 carcinomic human alveolar basal epithelial cell, read-out: Cellular IC50, A549
# [3] = Homo sapiens, A-431, WST-1 assay, A431, overexpression of EGFR, read-out: Cellular IC50, A431
# [4] = WST-1 assay, A431, overexpression of EGFR, read-out: Cellular IC50, A431
# [5] = WST-1 assay, MCF-7 breast cancer, Her2/neu overexpression, read-out: Cellular IC50, MCF-7
# T1 sequence (P00533 669-1210): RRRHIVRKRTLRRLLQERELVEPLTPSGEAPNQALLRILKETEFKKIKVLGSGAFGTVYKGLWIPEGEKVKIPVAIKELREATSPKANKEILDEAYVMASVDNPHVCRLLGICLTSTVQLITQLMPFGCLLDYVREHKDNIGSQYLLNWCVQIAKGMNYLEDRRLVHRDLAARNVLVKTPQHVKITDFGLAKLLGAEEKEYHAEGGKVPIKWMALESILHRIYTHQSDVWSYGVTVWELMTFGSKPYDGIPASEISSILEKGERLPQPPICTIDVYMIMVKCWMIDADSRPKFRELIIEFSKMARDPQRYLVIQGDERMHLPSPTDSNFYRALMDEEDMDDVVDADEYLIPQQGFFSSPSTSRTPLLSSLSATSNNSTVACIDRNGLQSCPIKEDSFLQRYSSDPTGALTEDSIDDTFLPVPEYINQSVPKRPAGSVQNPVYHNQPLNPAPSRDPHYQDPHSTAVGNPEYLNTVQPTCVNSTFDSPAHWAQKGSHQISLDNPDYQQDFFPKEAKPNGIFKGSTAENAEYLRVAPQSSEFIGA
# T2 sequence (P04626 676-1255): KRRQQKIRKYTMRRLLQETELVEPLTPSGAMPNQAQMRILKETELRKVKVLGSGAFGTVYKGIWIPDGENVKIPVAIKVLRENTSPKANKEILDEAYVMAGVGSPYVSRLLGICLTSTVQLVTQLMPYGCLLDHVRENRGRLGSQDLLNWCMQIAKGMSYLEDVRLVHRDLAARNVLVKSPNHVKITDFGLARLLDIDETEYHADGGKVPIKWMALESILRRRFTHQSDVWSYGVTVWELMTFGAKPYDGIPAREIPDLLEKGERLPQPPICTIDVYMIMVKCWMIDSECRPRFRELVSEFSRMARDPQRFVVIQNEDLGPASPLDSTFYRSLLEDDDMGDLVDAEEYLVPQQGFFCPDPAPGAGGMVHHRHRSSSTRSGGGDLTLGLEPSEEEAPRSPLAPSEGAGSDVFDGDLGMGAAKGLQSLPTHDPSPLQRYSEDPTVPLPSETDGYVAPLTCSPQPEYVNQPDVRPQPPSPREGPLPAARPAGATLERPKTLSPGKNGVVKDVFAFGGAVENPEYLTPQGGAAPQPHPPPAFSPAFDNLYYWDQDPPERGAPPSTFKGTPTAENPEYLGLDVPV
smiles,measurement,setting,value
"Nc1ccc2ncnc(Nc3cccc(Br)c3)c2c1 [Compound 7, N4-(3-bromophenyl)quinazoline-4,6-diamine]",IC50,"A431 cells; Homo sapiens, A-431, read-out: Cellular IC50, A431",< 1000 nM
same,IC50,MCF-7 cells; [1],< 1000 nM
"Oc1ccc(Cl)cc1CNc1ccc2ncnc(Nc3cccc(Br)c3)c2c1 [Compound 9, 2-((4-(3-bromophenylamino)quinazolin-6-ylamino)methyl)-4-chlorophenol]",IC50,human EGFR,410 ± 24 nM
same,IC50,A549 cells; [2],2370 ± 89 nM
same,melting point,,230 to 232 °C
same,IC50,human HER2,1700 ± 51 nM
same,IC50,A431 cells; [3],< 1000 nM
same,IC50,A431 cells; [4],980 ± 3 nM
same,IC50,MCF-7 cells; [1],< 1000 nM
same,IC50,MCF-7 cells; [5],770 ± 8 nM
"Oc1c(Cl)cc(Cl)cc1CNc1ccc2ncnc(Nc3cccc(Br)c3)c2c1 [Compound 10, 2-((4-(3-bromophenylamino)quinazolin-6-ylamino)methyl)-4,6-dichlorophenol]",IC50,human EGFR,720 ± 36 nM
same,IC50,A549 cells; [2],1930 ± 71 nM
same,melting point,,214 to 216 °C
same,IC50,human HER2,1100 ± 95 nM
same,IC50,A431 cells; [3],1030 ± 27 nM
same,IC50,MCF-7 cells; [1],840 ± 4 nM
"Oc1ccc(Br)cc1CNc1ccc2ncnc(Nc3cccc(Br)c3)c2c1 [Compound 11, 4-bromo-2-((4-(3-bromophenylamino)quinazolin-6-ylamino)methyl)phenol]",IC50,human EGFR,570 ± 8 nM
same,IC50,A549 cells; [2],2130 ± 128 nM
same,melting point,,189 to 191 °C
same,IC50,human HER2,1400 ± 3 nM
same,IC50,A431 cells; [3],870 ± 9 nM
same,IC50,MCF-7 cells; [1],900 ± 18 nM
"Oc1c(Br)cc(Br)cc1CNc1ccc2ncnc(Nc3cccc(Br)c3)c2c1 [Compound 12, 2,4-dibromo-6-((4-(3-bromophenylamino)quinazolin-6-ylamino)methyl)phenol]",IC50,human EGFR,950 ± 72 nM
same,IC50,A549 cells; [2],1820 ± 62 nM
same,melting point,,169 to 171 °C
same,IC50,human HER2,980 ± 2 nM
same,IC50,A431 cells; [3],< 1000 nM
same,IC50,A431 cells; [4],1140 ± 36 nM
same,IC50,MCF-7 cells; [1],< 1000 nM
same,IC50,MCF-7 cells; [5],1070 ± 16 nM
"Oc1ccc(Cl)cc1CNc1ccc2ncnc(Nc3cccc(Cl)c3)c2c1 [Compound 13, 4-chloro-2-((4-(3-chlorophenylamino)quinazolin-6-ylamino)methyl)phenol]",IC50,human EGFR,830 ± 65 nM
same,IC50,A549 cells; [2],2170 ± 49 nM
same,melting point,,238 to 240 °C
same,IC50,human HER2,2300 ± 34 nM
same,IC50,A431 cells; [3],< 1000 nM
same,IC50,A431 cells; [4],1260 ± 51 nM
same,IC50,MCF-7 cells; [1],< 1000 nM
same,IC50,MCF-7 cells; [5],920 ± 12 nM
"Oc1c(Cl)cc(Cl)cc1CNc1ccc2ncnc(Nc3cccc(Cl)c3)c2c1 [Compound 14, 2,4-dichloro-6-((4-(3-chlorophenylamino)quinazolin-6-ylamino)methyl)phenol]",IC50,human EGFR,650 ± 9 nM
same,IC50,A549 cells; [2],1590 ± 38 nM
same,melting point,,211 to 213 °C
same,IC50,human HER2,920 ± 9 nM
same,IC50,A431 cells; [3],920 ± 62 nM
same,IC50,MCF-7 cells; [1],800 ± 5 nM
"Oc1ccc(Br)cc1CNc1ccc2ncnc(Nc3cccc(Cl)c3)c2c1 [Compound 15, 4-bromo-2-((4-(3-chlorophenylamino)quinazolin-6-ylamino)methyl)phenol]",IC50,human EGFR,760 ± 73 nM
same,IC50,A549 cells; [2],2120 ± 22 nM
same,melting point,,227 to 229 °C
same,IC50,human HER2,3800 ± 2 nM
same,IC50,A431 cells; [3],960 ± 5 nM
same,IC50,MCF-7 cells; [1],810 ± 33 nM
"Oc1c(Br)cc(Br)cc1CNc1ccc2ncnc(Nc3cccc(Cl)c3)c2c1 [Compound 16, 2,4-dibromo-6-((4-(3-chlorophenylamino)quinazolin-6-ylamino)methyl)phenol]",IC50,human EGFR,890 ± 53 nM
same,IC50,A549 cells; [2],1650 ± 94 nM
same,melting point,,207 to 209 °C
same,IC50,human HER2,2100 ± 8.7 nM
same,IC50,A431 cells; [3],1320 ± 126 nM
same,IC50,MCF-7 cells; [1],990 ± 6 nM
"O=C(Nc1ccc2ncnc(Nc3cccc(Br)c3)c2c1)c1ccc(Cl)cc1O [Compound 17, N-(4-(3-bromophenylamino)quinazolin-6-yl)-4-chloro-2-hydroxybenzamide]",IC50,human EGFR,1200 ± 71 nM
same,IC50,A549 cells; [2],1590 ± 35 nM
same,melting point,,274 to 277 °C
same,IC50,human HER2,2800 ± 3.1 nM
same,IC50,A431 cells; [3],1460 ± 27 nM
same,IC50,MCF-7 cells; [1],1210 ± 29 nM
"O=C(Nc1ccc2ncnc(Nc3cccc(Br)c3)c2c1)c1cc(Br)ccc1O [Compound 18, 5-bromo-N-(4-(3-bromophenylamino)quinazolin-6-yl)-2-hydroxybenzamide]",IC50,human EGFR,1300 ± 98 nM
same,IC50,A549 cells; [2],800 ± 4 nM
same,melting point,,297 to 299 °C
same,IC50,human HER2,1600 ± 12 nM
same,IC50,A431 cells; [3],1620 ± 8 nM
same,IC50,MCF-7 cells; [1],1230 ± 35 nM
"O=C(Nc1ccc2ncnc(Nc3cccc(Br)c3)c2c1)c1cc(Cl)ccc1O [Compound 19, N-(4-(3-bromophenylamino)quinazolin-6-yl)-5-chloro-2-hydroxybenzamide]",IC50,human EGFR,1070 ± 18 nM
same,IC50,A549 cells; [2],1770 ± 56 nM
same,melting point,,304 to 306 °C
same,IC50,human HER2,1800 ± 9 nM
same,IC50,A431 cells; [3],1280 ± 13 nM
same,IC50,MCF-7 cells; [1],1120 ± 87 nM
"O=C(Nc1ccc2ncnc(Nc3cccc(Br)c3)c2c1)c1cc(Br)cc(Br)c1O [Compound 20, 3,5-dibromo-N-(4-(3-bromophenylamino)quinazolin-6-yl)-2-hydroxybenzamide]",IC50,human EGFR,1400 ± 23 nM
same,IC50,A549 cells; [2],1800 ± 167 nM
same,melting point,,274 to 276 °C
same,IC50,human HER2,2100 ± 66 nM
same,IC50,A431 cells; [3],1390 ± 23 nM
same,IC50,MCF-7 cells; [1],1310 ± 29 nM
"O=C(Nc1ccc2ncnc(Nc3cccc(Cl)c3)c2c1)c1ccccc1O [Compound 22, N-(4-(3-chlorophenylamino)quinazolin-6-yl)-2-hydroxybenzamide]",IC50,human EGFR,160 ± 7 nM
same,IC50,A549 cells; [2],1390 ± 54 nM
same,melting point,,117 to 120 °C
same,IC50,human HER2,840 ± 3 nM
same,IC50,A431 cells; [3],740 ± 6 nM
same,IC50,MCF-7 cells; [1],610 ± 5 nM
"O=C(Nc1ccc2ncnc(Nc3cccc(Cl)c3)c2c1)c1ccc(Cl)cc1O [Compound 23, 4-chloro-N-(4-(3-chlorophenylamino)quinazolin-6-yl)-2-hydroxybenzamide]",IC50,human EGFR,320 ± 8 nM
same,IC50,A549 cells; [2],1360 ± 16 nM
same,melting point,,211 to 213 °C
same,IC50,human HER2,1200 ± 22 nM
same,IC50,A431 cells; [3],840 ± 9 nM
same,IC50,MCF-7 cells; [1],550 ± 7 nM
"Cc1ccc(C(=O)Nc2ccc3ncnc(Nc4cccc(Cl)c4)c3c2)c(O)c1 [Compound 24, N-(4-(3-chlorophenylamino)quinazolin-6-yl)-2-hydroxy-4-methylbenzamide]",IC50,human EGFR,490 ± 3 nM
same,IC50,A549 cells; [2],1300 ± 12 nM
same,melting point,,257 to 258 °C
same,IC50,human HER2,2000 ± 182 nM
same,IC50,A431 cells; [3],630 ± 4 nM
same,IC50,MCF-7 cells; [1],470 ± 4 nM
"O=C(Nc1ccc2ncnc(Nc3cccc(Cl)c3)c2c1)c1cc(Br)ccc1O [Compound 25, 5-bromo-N-(4-(3-chlorophenylamino)quinazolin-6-yl)-2-hydroxybenzamide]",IC50,human EGFR,580 ± 7 nM
same,IC50,A549 cells; [2],1690 ± 78 nM
same,melting point,,299 to 301 °C
same,IC50,human HER2,2600 ± 133 nM
same,IC50,A431 cells; [3],880 ± 11 nM
same,IC50,MCF-7 cells; [1],740 ± 13 nM
"C#Cc1cccc(Nc2ncnc3cc(OCCOC)c(OCCOC)cc23)c1 [Erlotinib, reference compound]",IC50,"A549 cells; Homo sapiens, A549, read-out: Cellular IC50, A549",920 ± 13 nM
same,IC50,"MCF-7 cells; Homo sapiens, MCF7, read-out: Cellular IC50, MCF-7",1070 ± 28 nM
